From US20240115527A1, “CXCR1/CXCR2 INHIBITORS FOR USE IN TREATING MYELOFIBROSIS” (Icahn School of Medicine at Mount Sinai, priority 2020, published 2024)

What was measured:
Assay type in all cases: cell-based, human
MF CD34+ cells [1] = assay: Colony forming assay (CFU-GM) of cultured MF CD34+ cells with IL-8
Source text: FIGS. 5A, 5B. 5C, 5D, and 5E illustrate that a CXCR1/CXCR2 inhibitor reverses effects of IL-8 on MF CD34^+ cell colony formation. […] CFU-GM=colony-forming unit-granulocyte-macrophage. FIGS. 5B and 5C illustrate that IL-8 increased CFU-GM colony formation by MF CD34^+ cells in a dose dependent fashion and that the effects of IL-8 were inhibited by treatment with Ladx. FIG. 5B. Normal cells. FIG. 5C. MF cells. […] Con=control. IL-8 concentrations increase from left to right. […] P values were as follows: w/o Ladx: Con vs IL-8—10 ng: 0.159332; Con vs IL-8—20 ng: 0.011976; Con vs IL-8—50 ng: 0.00262; Con vs IL-8—100 ng: 0.00042; w/ 10 μM Ladx: Con vs Ladx: 0.315782; IL-8—10 ng vs plus Ladx: 0.295851; IL-8—20 ng vs plus Ladx: 0.077726; IL-8—50 ng vs plus Ladx: 0.031355; IL-8—100 ng vs plus Ladx: 0.081595.

[2] = test system: MF CD34+ cells co-cultured with splenic EC; assay: Proliferation of MF CD34+ cells co-cultured with LCN2 treated splenic endothelial cells; details: FIG. 4B
Source text: FIGS. 4A and 4B illustrate that addition of a CXCR1/CXCR2 inhibitor reverses effects of IL-8 on MF CD34^+ cells proliferation and lineage differentiation. FIG. 4A illustrates that IL-8 decreased the fraction of normal CD34^+, CD41^+, and CD33^+ cells, but increased the fraction of MF CD34^+, CD41^+, and CD33^+ cells. The effects of IL-8 were eliminated by the addition of the CXCR1/CXCR2 inhibitor ladarixin (Ladx). Normal CD34/CD41/CD33: left bars. MF CD34/CD41/CD33: Right bars. FIG. 4B illustrates that splenic endothelial cells (ECs) promote the proliferation of hematopoietic CD34^+ cells. Shown is fold change in CD34^+ cells cultured alone in the absence of cytokines and that the numbers are increased when the CD34^+ cells were co-cultured with LCN2 treated endothelial cells. The effects of co-cultivation with ECs were eliminated by addition of the CXCR1/CXCR2 antagonist reparixin (RPX).
Similarly, while treatment with LCN2 enhances endothelial cell (EC)-mediated proliferation of MF cells, treatment with the CXCR1/CXCR2 inhibitor reparixin decreased MF CD34^+ proliferation when co-cultured with splenic EC (FIG. 4B).

[3] = test system: MF CD34+, CD41+ and CD33+ cells; assay: Proliferation and lineage differentiation of MF mononuclear cells cultured with IL-8, flow cytometry; details: 50 ng/ml of IL-8, 3 days of incubation, FIG. 4A
Procedure: To evaluate the effects of IL-8 on MF CD34^+ cells proliferation and lineage differentiation, MF mononuclear cells (MNC cells) were cultured with StemSpan™ Serum-Free Expansion Medium (SFEM) containing 20 ng/ml of stem cell factor (SCF), thrombopoietin (TPO), FL-3L and IL-3 with or without 50 ng/ml of IL-8. The cells were harvested after 3 days of incubation. The proportion of hematopoietic cells belonging to specific lineages were determined using flow cytometry.

normal donor CD34+ cells = assay: Proliferation and lineage differentiation of normal donor cells cultured with IL-8, flow cytometry; details: incubated with IL-8, FIG. 4A
spleen stromal cells = assay: VEGF mRNA expression by spleen stromal cells after IL-8 silencing; details: addition of IL-8, FIG. 3C
Source text: (§1) FIGS. 3A, 3B, and 3C illustrate that reduction of IL-8 blocks VEGF, which is involved in the development of splenic endothelial cells (EC)/MF HSC niches. FIGS. 3A and 3B illustrate that LCN2 increases IL-8 and CXCL1 protein and mRNA levels in spleen stromal cells. Con: left bars. LCN2: right bars. FIG. 3C illustrates that IL-8 regulates VEGF expression. si=silencing. Ab=antibody. Con=control.
(§2) Lipocalin2 (LCN2) is a cytokine produced by MF marrow myeloid cells. Levels of LCN2 are 2-3 fold greater in the circulation of MF patients as compared to PV and ET patients and even higher as compared to healthy controls. […] IL-8 and the related chemokine CXCL1 are pro-angiogenic creating a cascade of cytokines (VEGF) contributing to the development of splenic EC/MF HSC niches. […] The positive impact of IL-8 on VEGF expression was blocked by an IL-8 neutralizing antibody.

MF CD34+ cells [4] = assay: Clonal assays of MF CD34+ cells; JAK2V617F allele status of picked hematopoietic colonies; details: for number of colonies, Heter (JAK2V617F heterozygous) / number of colonies, Homo (JAK2V617F homozygous) / number of colonies, WT (JAK2 wild type) / number of colonies, Wild (JAK2 wild type): no ladarixin
Procedure: Individual hematopoietic colonies were randomly picked from clonal assays of CD34^+ cells from 6 MF cases and the JAK2V617F allele status was determined.
IL-8 alone increased the absolute numbers of JAK2V617F+ colonies, and the addition of Ladarixin reduced the numbers of JAK2V617F positive colonies stimulated by IL-8 (Tables 1-3).

normal CD34+ cells = assay: Hematopoietic colony formation by normal CD34+ cells with IL-8; details: increasing concentrations of IL-8, FIG. 5B
[5] = test system: normal splenic stromal cells; assay: IL-8 and CXCL1 mRNA and protein levels in normal splenic stromal cells treated with LCN2; details: treatment with LCN2, FIGS. 3A and 3B
Source text: as §1, §2

## CC(C)Cc1ccc([C@@H](C)C(=O)NS(C)(=O)=O)cc1 [reparixin, R-(-)-2-(4-isobutylphenyl)-N-methanesulfonyl propionamide]
MF CD34+ cells [1]; co-treatment with reparixin, FIG. 5A
  effect on IL-8 enhanced colony output of MF CD34+ cells: ameliorated
[2]; reparixin added to co-culture
  MF CD34+ proliferation when co-cultured with splenic EC: decreased

## IL-8: pro-inflammatory cytokine; CXCR1 and CXCR2 are its receptors
[3]
  percentage of MF CD34+, CD41+ and CD33+ cells: increased
MF CD34+ cells [1]; IL-8 at doses of 50 ng/ml and 100 ng/ml, FIG. 5C
  numbers of MF CFU-GM colonies: increased
MF CD34+ cells [1]; cultured with IL-8, FIG. 5A
  colony output of cultured MF CD34+ cells compared to WT CD34+ cells: enhanced colony output
MF CD34+ cells [1]; treatment with IL-8, FIG. 5D
  CFU-GM colony formation by MF samples with the highest expression of CXCR1/CXCR2: increased
Normal donor CD34+ cells
  percentage of normal donor CD34+, CD41+ and CD33+ cell populations: decreased
Spleen stromal cells
  effect on decrease of VEGF mRNA expression caused by silencing of IL-8: reversed this effect
MF CD34+ cells [4]; IL-8 alone, 6 MF cases
  absolute numbers of JAK2V617F+ colonies: increased
MF CD34+ cells [4]; MF1 CD34+ cells, IL-8 10 ng
  number of colonies, Heter (JAK2V617F heterozygous): 36
  number of colonies, Homo (JAK2V617F homozygous): 0
  number of colonies, WT (JAK2 wild type): 18
MF CD34+ cells [4]; MF1 CD34+ cells, IL-8 20 ng
  number of colonies, Heter (JAK2V617F heterozygous): 48
  number of colonies, Homo (JAK2V617F homozygous): 0
  number of colonies, WT (JAK2 wild type): 17
MF CD34+ cells [4]; MF1 CD34+ cells, IL-8 50 ng
  number of colonies, Heter (JAK2V617F heterozygous): 52
  number of colonies, Homo (JAK2V617F homozygous): 0
  number of colonies, WT (JAK2 wild type): 21
MF CD34+ cells [4]; MF1 CD34+ cells, IL-8 100 ng
  number of colonies, Heter (JAK2V617F heterozygous): 68
  number of colonies, Homo (JAK2V617F homozygous): 0
  number of colonies, WT (JAK2 wild type): 0
MF CD34+ cells [4]; MF2 CD34+ cells, IL-8 10 ng
  number of colonies, Heter (JAK2V617F heterozygous): 0
  number of colonies, Homo (JAK2V617F homozygous): 0
  number of colonies, WT (JAK2 wild type): 44
MF CD34+ cells [4]; MF2 CD34+ cells, IL-8 20 ng
  number of colonies, Heter (JAK2V617F heterozygous): 3
  number of colonies, Homo (JAK2V617F homozygous): 0
  number of colonies, WT (JAK2 wild type): 38
MF CD34+ cells [4]; MF2 CD34+ cells, IL-8 50 ng
  number of colonies, Heter (JAK2V617F heterozygous): 7
  number of colonies, Homo (JAK2V617F homozygous): 0
  number of colonies, WT (JAK2 wild type): 41
MF CD34+ cells [4]; MF2 CD34+ cells, IL-8 100 ng
  number of colonies, Heter (JAK2V617F heterozygous): 3
  number of colonies, Homo (JAK2V617F homozygous): 0
  number of colonies, WT (JAK2 wild type): 52
MF CD34+ cells [4]; MF3 CD34+ cells, IL-8 10 ng
  number of colonies, Heter (JAK2V617F heterozygous): 27
  number of colonies, Homo (JAK2V617F homozygous): 80
  number of colonies, WT (JAK2 wild type): 36
MF CD34+ cells [4]; MF3 CD34+ cells, IL-8 20 ng
  number of colonies, Heter (JAK2V617F heterozygous): 79
  number of colonies, Homo (JAK2V617F homozygous): 63
  number of colonies, WT (JAK2 wild type): 31
MF CD34+ cells [4]; MF3 CD34+ cells, IL-8 50 ng
  number of colonies, Heter (JAK2V617F heterozygous): 30
  number of colonies, Homo (JAK2V617F homozygous): 99
  number of colonies, WT (JAK2 wild type): 30
MF CD34+ cells [4]; MF3 CD34+ cells, IL-8 100 ng
  number of colonies, Heter (JAK2V617F heterozygous): 32
  number of colonies, Homo (JAK2V617F homozygous): 95
  number of colonies, WT (JAK2 wild type): 42
MF CD34+ cells [4]; MF4 CD34+ cells, IL-8 10 ng
  number of colonies, Heter (JAK2V617F heterozygous): 183
  number of colonies, Homo (JAK2V617F homozygous): 12
  number of colonies, Wild (JAK2 wild type): 0
MF CD34+ cells [4]; MF4 CD34+ cells, IL-8 20 ng
  number of colonies, Heter (JAK2V617F heterozygous): 171
  number of colonies, Homo (JAK2V617F homozygous): 0
  number of colonies, Wild (JAK2 wild type): 0
MF CD34+ cells [4]; MF4 CD34+ cells, IL-8 50 ng
  number of colonies, Heter (JAK2V617F heterozygous): 190
  number of colonies, Homo (JAK2V617F homozygous): 0
  number of colonies, Wild (JAK2 wild type): 0
MF CD34+ cells [4]; MF4 CD34+ cells, IL-8 100 ng
  number of colonies, Heter (JAK2V617F heterozygous): 174
  number of colonies, Homo (JAK2V617F homozygous): 12
  number of colonies, Wild (JAK2 wild type): 12
MF CD34+ cells [4]; MF5 CD34+ cells, IL-8 10 ng
  number of colonies, Heter (JAK2V617F heterozygous): 0
  number of colonies, Homo (JAK2V617F homozygous): 0
  number of colonies, Wild (JAK2 wild type): 124
MF CD34+ cells [4]; MF5 CD34+ cells, IL-8 20 ng
  number of colonies, Heter (JAK2V617F heterozygous): 0
  number of colonies, Homo (JAK2V617F homozygous): 0
  number of colonies, Wild (JAK2 wild type): 142
MF CD34+ cells [4]; MF5 CD34+ cells, IL-8 50 ng
  number of colonies, Heter (JAK2V617F heterozygous): 0
  number of colonies, Homo (JAK2V617F homozygous): 0
  number of colonies, Wild (JAK2 wild type): 115
MF CD34+ cells [4]; MF5 CD34+ cells, IL-8 100 ng
  number of colonies, Heter (JAK2V617F heterozygous): 0
  number of colonies, Homo (JAK2V617F homozygous): 0
  number of colonies, Wild (JAK2 wild type): 115
MF CD34+ cells [4]; MF6 CD34+ cells, IL-8 10 ng
  number of colonies, Heter (JAK2V617F heterozygous): 0
  number of colonies, Homo (JAK2V617F homozygous): 0
  number of colonies, Wild (JAK2 wild type): 115
MF CD34+ cells [4]; MF6 CD34+ cells, IL-8 20 ng
  number of colonies, Heter (JAK2V617F heterozygous): 0
  number of colonies, Homo (JAK2V617F homozygous): 0
  number of colonies, Wild (JAK2 wild type): 131
MF CD34+ cells [4]; MF6 CD34+ cells, IL-8 50 ng
  number of colonies, Heter (JAK2V617F heterozygous): 8
  number of colonies, Homo (JAK2V617F homozygous): 0
  number of colonies, Wild (JAK2 wild type): 125
MF CD34+ cells [4]; MF6 CD34+ cells, IL-8 100 ng
  number of colonies, Heter (JAK2V617F heterozygous): 12
  number of colonies, Homo (JAK2V617F homozygous): 0
  number of colonies, Wild (JAK2 wild type): 87
Normal CD34+ cells
  hematopoietic colony formation by normal CD34+ cells: did not affect

B1: LCN2: Lipocalin2 (LCN2) is a cytokine produced by MF marrow myeloid cells (protein, UniProt P80188 21-198, looked up)
Neutrophil …: QDSTSDLIPAPPLSKVPLQQNFQDNQFQGKWYVVGLAGNAILREDKDPQKMYATIYELKEDKSYNVTSVLFRKKKCDYWIRTFVPGCQPGEFTLGNIKSYPGLTSYLVRVVSTNYNQHAMVFFKKVSQNREYFKITLYGRTKELTSELKENFIRFSKSLGLPENHIVFPVPIDQCIDG
[2]; LCN2 treated endothelial cells
  endothelial cell (EC)-mediated proliferation of MF cells: enhances
[5]
  CXCL1 mRNA and protein levels: significant increase
  IL-8 mRNA and protein levels: significant increase
